Data reported in US7169568B2, “Method for screening molecules that exert a neurotrophic effect through activation of neurotrophin receptors” (New York University, priority 2000, dated 2007).
Where no end group is shown, it is not given here.

Test system: TrkA receptors
Test: TrkA receptor phosphorylation in primary E18 basal forebrain neurons (immunoprecipitation, anti-phosphotyrosine Western blot)
Assay type: cell-based, rat
Details: 10 nM, 2 hours
Protocol: Primary cultures of E18 basal forebrain neurons were prepared as described in the Materials and Methods section of Example 2 and treated with PACAP38 (10 nM) or NGF (10 ng/ml) for various times. Activation of TrkA receptors was assessed by immunoprecipitation and Western blotting with anti-phosphotyrosine antibody.
Immunoprecipitated and Immunoblotting. PC12 (615) cells were maintained in DMEM containing 10% FBS supplemented with 100 units/ml penicillin, 100 μg/ml streptomycin, and 2 mM glutamine plus 200 μg/ml G418. Cells were placed in serum free medium overnight before experiments. Cell lysates from PC12(615) cells, or basal forebrain cells were incubated in lysis buffer (1% Nonidet P-40) for 4 hrs to overnight at 4° C. with anti-pan-Trk polyclonal antibody followed by incubation with protein A-Sepharose beads. Equivalent amounts of protein were analyzed for each condition. The beads were washed five times with lysis buffer, and the immune complexes were boiled in SDS-sample buffer and loaded on SDS-PAGE gels for immunoblot analysis. The immunoreactive protein bands were detected by enhanced chemiluminescence (Amersham Pharmacia).
Basal Forebrain Cell Cultures. […] Cells were counted and plated on culture wells coated with 0.01 mg/ml poly-D-lysine overnight. […]

## PACAP27: 27 amino acid form of PACAP (HSDGIFTDSYSRYRKQMAVKKYLAAVL; ends and bridges not checked; UniProt P18509 132-158, looked up, fragment)
  Phosphorylation of TrkA receptors: gave rise to phosphorylated TrkA receptors
